Patent publication US9499823B2, “Constructs expressing chimeric receptors and use thereof for the controlled activation of defence response to pathogens in plants” (priority 2009, dated 2016)
“Also recorded” adds a separate entry of the source.

What was measured:
[1] = test system: ethylene biosynthesis in tobacco leaves; assay: Induction of ethylene biosynthesis in agroinfiltrated tobacco leaf explants; assay type: cell-based, Nicotiana tabacum; settings: for ethylene release induced by flg22: flg22, 2 h, compared with EFR-expressing explants as negative controls
Procedure: F) Induction of ethylene biosynthesis in agroinfiltrated tobacco leaves expressing the fluorescent EFR, FLS2, TMC, eJMC and eJMC^Y859A. NC: negative control, represented by agroinfiltrated leaf tissues expressing fluorescent EFR or FLS2 and elicited with flg22 or elfl8, respectively. Results are averages±standard error (n=3).
Excised infiltrated leaf sectors were stimulated for 2 h with water or the elicitor ([…] and 100 μg/ml for OGs). Values are means±s.e.m. (N=3).
E) Induction of ethylene biosynthesis in agroinfiltrated tobacco leaves expressing EFR, WAK1, WEG and EWAK. Each construct was stimulated for 2 h with elfl8 (10 μM) or OGs (100 μg/mL). NC: negative control, represented by agroinfiltrated leaf tissue expressing EFR or FLS2 when OGs or elfl8, respectively, were used for elicitation. Error bars indicate the standard error of three independent replicates.
(A) Induction of ethylene biosynthesis in agroinfiltrated tobacco explants expressing EFR, WAK1, WEG and EWAK. […] Agroinfiltrated leaf tissues expressing EFR or WEG and elicited with OGs or elfl8 respectively, represented our negative control. Values are means±s.e.m. (N=3). (B) Elicitor-induced gene expression in untransformed Col-0 and Col-0 efr plants, and in transgenic Arabidopsis Col-0 efr plants stably expressing WEG. Accumulation of At3g22270 and At4g37640 transcripts was analysed by semi-quantitative PCR, using the UBQ5 gene for normalization. Adult leaves were syringe-infiltrated with water, OGs (25 μg/ml) or elfl8 (10 μM) for 3 h. The experiment was repeated three times with similar results. The same experiment was performed in a second independent transgenic line expressing WEG with similar results.
Approximately 150 mg of tobacco agroinfiltrated leaf were cut in small slices and extensively washed with sterile distilled water. The explants were placed in sealed 10 mL flasks containing 2 mL of sterile water alone or supplemented with 100 mg L^−1 OGs, or 1 μM flg22 or 10 μM elfl8. 450 μl headspace samples were withdrawn from the vial after 2 h treatment and analyzed by gas chromatography-mass spectrometry using an Agilent 6850A gas chromatograph coupled to a 5973N quadrupole mass selective detector (Agilent Technologies, Palo Alto, Calif., USA). Chromatographic separations were carried out an HP Plot-Q fused-silica capillary column (30 m×0.32 mm i.d.) coated with polystyrene-divinylbenzene (film thickness 0.20 μm) as stationary phase. Injection mode: splitless at a temperature of 220° C. The initial temperature of the oven was held at 50° C. for 8 min then ramped to 220° C. at a rate of 15° C./min and held for 5 min. Helium was used as carrier gas at a constant flow of 1.0 ml/min. Mass spectra were collected both in full scan and in SIM mode monitoring the ions m/z m/z 26, m/z 27 and m/z 28 (ionization energy 70 eV; ion source 280° C.; ion source vacuum 10^−5 Torr).

[2] = test system: Pseudomonas syringae DC3000; assay: Pseudomonas DC3000 infection of Arabidopsis Ws-0 plants by spraying; assay type: in vivo; settings: transgenic Ws-0 plants vs Ws-0 wild type, 4 days post infection
From the text: C) Pseudomonas DC3000 infections. (Left Panel) Symptoms disease of wild type and transformed plants after 4 days post infection. (Right panel) Growth of Pseudomonas syringae DC3000 after 4 day post infection. ***, p<0.005.
The authors therefore infected A. thaliana plants by spraying Pst DC3000 bacteria onto leaf surfaces. […] Higher resistance of eJMC plants, compared to Ws-0 wild-type plants, was found in all of three independent experiments.

[3] = test system: Agrobacterium tumefaciens GV3101; assay: Growth of Agrobacterium in N. tabacum tissues transiently expressing receptor proteins; assay type: in vivo; settings: 24 h after inoculation, tobacco tissues expressing the receptor
Procedure: F) Growth of Agrobacterium in N. tabacum tissues transiently expressing receptor proteins. Tobacco leaves were infiltrated with Agrobacterium expressing the indicated receptors and the number of Agrobacterium colony-forming units (c.f.u.) in the tissues was analyzed soon after infiltration (white bars) and 24 h (gray bars). EFR and eJMC were used as positive and negative controls, respectively. For each receptor, three samples were analyzed in five independent experiments. *, p<0.005.
(A) Growth of A. tumefaciens in N. tabacum tissues transiently expressing receptor proteins. Tobacco leaves were infiltrated with Agrobacterium carrying the indicated receptor constructs and the number of Agrobacterium colony-forming units (c.f.u.) in the tissues was analyzed immediately after infiltration (white bars) and after 24 h (gray bars). EFR and eJMC were used as positive and negative controls, respectively. For each receptor, three samples were analyzed in five independent experiments. Asterisks indicate statistically significant differences against control (Col-0 for WAK1 plants and Col-0 efr for WEG and EWAK plants). (B) Lesion development in Arabidopsis wild type (Col-0) and mutant Col-0 efr plants and in transgenic plants expressing WAK1, WEG and EWAK plants inoculated with B. cinerea at 48 h post-inoculation. Values are means±s.e.m. of at least 16 lesions. The same experiment was performed in a second independent transgenic line expressing WAK1 with similar results. Asterisks indicate statistically significant differences against control (Col-0 for WAK1 plants and Col-0 efr for WEG and EWAK plants).
Agrobacterium tumefaciens GV3101 strain infections was performed as described in Katagiri et al., (2002) and using a concentration of Agrobacterium corresponding at an OD600 of 1.0 in 10 mM MgCl2 and 600 μM acetosyringone. After 24 h of infiltration, serial dilution of Agrobacterium colonies were deposited on LB agar supplemented with gentamycin and rifampicin and grown for 2-3 days at 28° C. in the dark. At least 5 independent plants and 3 different leaves by plant, were used per experiment. Pectobacterium carotovorum subsp. carotovorum infections Pectobacterium carotovorum subsp. carotovorum (formely Erwinia carotovora; Gardan et al., 2003) (strain DMSZ 30169) was obtained from DSMZ GmbH (Germany). A liquid colture using 10 ml LB medium was prepared. After 16 h of growth at 28° C. on rotary shaker at 250 rpm, bacterial cells were harvested by centrifugation and the pellet was resuspended in 50 mM potassium phosphate buffer pH 7.0 corresponding to 5×10^7 CFU/ml.

Row | Molecule | ethylene release induced by flg22 [1] | development of disease symptoms / susceptibility to Pst DC3000 [2] | numbers of bacteria in leaves [2] | ethylene accumulation upon stimulation with elfl8 ([1]; elfl8 10 μM, 2 h) | effect on the number of living Agrobacterium cells [3] | ethylene accumulation induced by OGs relative to negative control ([1]; OGs 100 μg/mL, 2 h, negative control OG-stimulated EFR-expressing tissues) [times] | release of ethylene induced by elfl8 relative to negative control ([1]; elfl8 10 μM, 2 h, negative control FLS2-expressing explants) [times] | decrease in the number of living Agrobacterium cells ([3]; p<0.005) [%]
1 | FLS2 [reference compound] | only a weak response | Ws-0 plants showed a faster and more severe development of disease symptoms | higher numbers of bacteria in Ws-0 | – | – | – | – | –
2 | eJMC: chimera (Arg806FLS2-Val650EFR): LRR and eJM domains of FLS2 fused upstream of TM, iJM and kinase domains of EFR, GFP-fused | significantly higher | Ws-0 plants showed a faster and more severe development of disease symptoms; also recorded: less susceptible | higher numbers of bacteria in Ws-0 | did not | no significant effect; also recorded: No significant change | – | – | –
3 | WEG: chimeric receptor: WAK1 ectodomain fused to the TM-iJM-kinase portion of EFR, GFP-fused (protein, left off: large carriers) QHQPGENCQNKCGNITIEYPFGISSGCYYPGNESFSITCKEDRPHVLSDIEVANFNHSGQLQVLLNRSSTCYDEQGKKTEEDSSFTLENLSLSANNKLTAVGCNALSLLDTFGMQNYSTACLSLCDSPPEADGECNGRGCCRVDVSAPLDSYTFETTSGRIKHMTSFHDFSPCTYAFLVEDDKFNFSSTEDLLNLRNVMRFPVLLDWSVGNQTCEQVGSTSICGGNSTCLDSTPRNGYICRCNEGFDGNPYLSAGCQDVNECTTSSTIHRHNCSDPKTCRNKVGGFYCKCQSGYRLDTTTMSCKRKEVVSGICIGIASLLLIIIVASLCWFMKRKKKNNASDGNPSDSTTLGMFHEKVSYEELHSATSRFSSTNLIGSGNFGNVFKGLLGPENKLVAVKVLNLLKHGATKSFMAECETFKGIRHRNLVKLITVCSSLDSEGNDFRALVYEFMPKGSLDMWLQLEDLERVNDHSRSLTPAEKLNIAIDVASALEYLHVHCHDPVAHCDIKPSNILLDDDLTAHVSDFGLAQLLYKYDRESFLNQFSSAGVRGTIGYAAPEYGMGGQPSIQGDVYSFGILLLEMFSGKKPTDESFAGDYNLHSYTKSILSGCTSSGGSNAIDEGLRLVLQVGIKCSEEYPRDRMRTDEAVRELISIRSKFFSSKTTITESPRDAPQSSPQEWMLNTDMHTM | – | – | – | – | no significant effect; also recorded: No significant change | 2.4 | – | –
4 | EFR: Arabidopsis LRR receptor kinase Elongation Factor Tu Receptor (AT5G20480); GFP-fused control (protein) RFSNETDMQALLEFKSQVSENNKREVLASWNHSSPFCNWIGVTCGRRRERVISLNLGGFKLTGVISPSIGNLSFLRLLNLADNSFGSTIPQKVGRLFRLQYLNMSYNLLEGRIPSSLSNCSRLSTVDLSSNHLGHGVPSELGSLSKLAILDLSKNNLTGNFPASLGNLTSLQKLDFAYNQMRGEIPDEVARLTQMVFFQIALNSFSGGFPPALYNISSLESLSLADNSFSGNLRADFGYLLPNLRRLLLGTNQFTGAIPKTLANISSLERFDISSNYLSGSIPLSFGKLRNLWWLGIRNNSLGNNSSSGLEFIGAVANCTQLEYLDVGYNRLGGELPASIANLSTTLTSLFLGQNLISGTIPHDIGNLVSLQELSLETNMLSGELPVSFGKLLNLQVVDLYSNAISGEIPSYFGNMTRLQKLHLNSNSFHGRIPQSLGRCRYLLDLWMDTNRLNGTIPQEILQIPSLAYIDLSNNFLTGHFPEEVGKLELLVGLGASYNKLSGKMPQAIGGCLSMEFLFMQGNSFDGAIPDISRLVSLKNVDFSNNNLSGRIPRYLASLPSLRNLNLSMNKFEGRVPTTGVFRNATAVSVFGNTNICGGVREMQLKPCIVQASPRKRKPLSVRKKVVSGICIGIASLLLIIIVASLCWFMKRKKKNNASDGNPSDSTTLGMFHEKVSYEELHSATSRFSSTNLIGSGNFGNVFKGLLGPENKLVAVKVLNLLKHGATKSFMAECETFKGIRHRNLVKLITVCSSLDSEGNDFRALVYEFMPKGSLDMWLQLEDLERVNDHSRSLTPAEKLNIAIDVASALEYLHVHCHDPVAHCDIKPSNILLDDDLTAHVSDFGLAQLLYKYDRESFLNQFSSAGVRGTIGYAAPEYGMGGQPSIQGDVYSFGILLLEMFSGKKPTDESFAGDYNLHSYTKSILSGCTSSGGSNAIDEGLRLVLQVGIKCSEEYPRDRMRTDEAVRELISIRSKFFSSKTTITESPRDAPQSSPQEWMLNTDMHTM | – | – | – | accumulated ethylene | – | – | 3.8 | 30
